Consider eight compounds from US7112584B2, “Nonsteroidal antiinflammatory agents” (Schering AG, priority 2002, dated 2006).

A word on the pIC50: it is the negative decadic logarithm of the IC50, by convention in mol/L. Broadly, the melting point is the temperature, or range, at which the solid turns liquid. A word on the pEC50: it is the negative decadic logarithm of the EC50, by convention in mol/L.

In series [1] the test system is secretion of cytokine IL-8 in human monocyte cell line THP-1. As to the kind of experiment: inhibition of LPS-triggered IL-8 secretion in THP-1 cells (ELISA). Type of series: cell-based. Also on record: Inhibition of IL-8 Secretion Efficacy: concentration or dose not given beside the values. The note with it: THP-1, LPS-triggered; for pIC50: Homo sapiens. Here is the method:
The concentration of the cytokines was determined in the supernatant with use of commercially available ELISA kits.
The potency of the inflammation inhibition is determined by the inhibition of the secretion of cytokine IL-8 in a cellular test. […] The concentration of the cytokine was determined in the supernatant by commercially available ELISA kits. In this connection, the compounds of formula I show a high to very high potency and action (>50%) in the inhibition (see Table 4). The potency of the racemates is considerably lower than that of the pure enantiomers.
Background: An ELISA detects its analyte on a solid surface through an enzyme-linked reagent.

The target of the next series is T1, human GR (Homo sapiens, UniProt P04150).
T1 construct: made in house; host or cells: Sf9 cells infected with recombinant baculovirus (cytosol preparation)
T1 sequence (P04150 1-777): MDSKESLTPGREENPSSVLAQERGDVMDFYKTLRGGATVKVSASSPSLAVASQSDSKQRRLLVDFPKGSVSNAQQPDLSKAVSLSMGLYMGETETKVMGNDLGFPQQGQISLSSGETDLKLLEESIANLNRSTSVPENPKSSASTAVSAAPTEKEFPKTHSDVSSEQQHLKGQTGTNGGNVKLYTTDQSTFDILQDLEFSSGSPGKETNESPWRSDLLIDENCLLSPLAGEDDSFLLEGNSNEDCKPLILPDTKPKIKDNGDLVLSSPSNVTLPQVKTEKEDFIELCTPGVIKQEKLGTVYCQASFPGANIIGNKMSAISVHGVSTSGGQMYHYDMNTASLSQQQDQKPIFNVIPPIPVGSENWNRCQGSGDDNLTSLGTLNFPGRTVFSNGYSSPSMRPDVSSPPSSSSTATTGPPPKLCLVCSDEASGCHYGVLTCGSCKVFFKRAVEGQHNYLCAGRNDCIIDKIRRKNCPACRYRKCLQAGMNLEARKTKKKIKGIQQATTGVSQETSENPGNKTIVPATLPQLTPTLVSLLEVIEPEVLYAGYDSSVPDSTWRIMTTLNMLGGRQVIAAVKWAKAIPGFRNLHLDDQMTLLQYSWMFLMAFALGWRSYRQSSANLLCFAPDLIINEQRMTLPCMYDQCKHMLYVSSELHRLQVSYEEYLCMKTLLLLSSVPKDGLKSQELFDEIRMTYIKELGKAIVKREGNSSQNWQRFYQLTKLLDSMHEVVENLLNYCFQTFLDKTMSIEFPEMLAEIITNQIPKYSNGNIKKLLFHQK
Description: glucocorticoid receptor (GR) binding test, cytosol of Sf9 cells, [3H]-dexamethasone. The conditions noted are these: human GR from Sf9 cytosol. The source says:
The binding of substances to the glucocorticoid receptor (GR) is examined with the aid of a recombinantly produced receptor. Cytosol preparations of Sf9 cells, which had been infected with recombinant baculoviruses, which code for the GR, are used for the binding studies.

The next series concerns the target T2, GR (IL-6 promoter) (Homo sapiens, UniProt P04150).
T2 sequence (P04150 1-777): T1 sequence (P04150 1-777)
As to the kind of experiment: reporter gene test in HeLa cells, transrepression, IL-6 promoter-luciferase. The note with it: for Emax: HeLa, read-out: Transrepression (TR)(IL-6-Promoter) Efficacy. For orientation: Reporter assays use an easily measured gene product as a stand-in for the process of interest.

Series [2] addresses T3, GR (collagenase promoter) (Homo sapiens, UniProt P04150).
T3 construct: endogenous in cells; host or cells: HeLa cells stably transfected with promoter-luciferase reporters (MMTV, IL-6 or collagenase promoter)
T3 sequence (P04150 1-777): T1 sequence (P04150 1-777)
As to the kind of experiment: reporter gene test in HeLa cells, transrepression, collagenase promoter-luciferase. Type of series: cell-based. The note with it: TPA-induced; for pIC50: read-out: Transrepression (TR)(Collagenase Promoter) IC50.

The subject of series [3] is croton oil-induced inflammation. Description: croton oil-induced ear inflammation, edema formation in mice. Type of series: in vivo. The conditions noted are these: systemic, two hours before croton oil, ear weight. How it is done:
The antiinflammatory actions of the compounds of general formula I were tested in the animal experiment by tests in the croton oil-induced inflammation in rats and mice (J. Exp. Med. (1995), 182, 99–108). In this connection, croton oil in ethanolic solution was administered topically to the animals' ears. The test substances were also administered topically or systemically simultaneously with or two hours before the croton oil. After 16–24 hours, the ear weight was measured as a yardstick of the inflammatory edema, the peroxidase activity was measured as a yardstick of the invasions of granuloctyes, and the elastase activity was measured as a yardstick of the invasion of neutrophilic granuloctyes.
The antiinflammatory action of the compounds of general formula I were tested in an animal experiment in croton oil-induced inflammation in mice and in rats (J. Exp. Med. (1995), 182, 99–108). In this connection, croton oil in ethanolic solution was administered topically to the animals' ears. The test substances were systemically administered for two hours before the croton oil. After 16–24 hours, the ear weight was measured as a yardstick for the inflammatory edema.

Series [4] has as its system tyrosinamino transferase (TAT). Description: induction of tyrosinamino transferase (TAT) in liver homogenates. In kind it is in vivo. The conditions noted are these: mice, 8 hours after administration, vs untreated control. The source says: One of the most frequent undesirable effects of a glucocorticoid therapy is the so-called “steroid diabetes” [cf. Hatz, H. J., Glucocorticoide: Immunologische Grundlagen, Pharmakologie und Therapierichtlinien [Glucocorticoids: Immunological Bases, Pharmacology and Therapy Guidelines], Wissenschaftliche Verlagsgesellschaft mbH, Stuttgart, 1998]. The reason for this is the stimulation of the gluconeogenesis in the liver by induction of the enzymes that are responsible for this effect and by free amino acids, which develop from the degradation of proteins (catabolic action of glucocorticoids). A key enzyme of the catabolic metabolism in the liver is the tyrosinamino transferase (TAT). The activity of this enzyme can be determined photometrically from liver homogenates and represents a good yardstick of the undesirable metabolic actions of the glucocorticoids. To measure the TAT induction, the animals are sacrificed 8 hours after the test substances are administered, the livers are removed, and the TAT activity in the homogenate is measured.
As parameters for the side effects of the catabolic metabolism induced by steroids, the activity of the enzyme tyrosinamino transferase (TAT) was determined by photometry from liver homogenates. The activity represents a good yardstick for the undesirable catabolic actions of the glucocorticoids. To measure the TAT induction, the animals (mice and rats) are killed 8 hours after the test substance is administered, the liver is removed, and the TAT activity is measured in the homogenates.

Another series concerns the target T4, GR (MMTV promoter) (Homo sapiens, UniProt P04150).
T4 sequence (P04150 1-777): T1 sequence (P04150 1-777)
Description: reporter gene test in HeLa cells, transactivation, MMTV promoter-luciferase. The note with it: for Transactivating (TA)(MMTV-Promoter) Efficacy: HeLa cells, luciferase; for TA:TR EC50:IC50: MMTV promoter EC50 : IL-6 promoter IC50.

pEC50, pIC50: −log10 of the molar value.

Description for GR (IL-6 promoter): (§1) The MMTV promoter (transactivation) and the IL-6 promoter (transrepression) in each case were upstream to the gene that codes for the luciferase. By means of the photometric determination of the enzyme activity of the luciferase, it was possible to measure the activation of the transcription (MMTV-promoter-construct) or the inhibition of the transcription (IL-6-promoter-construct) by the GR.
(§2) This dissociation of the mechanisms of action was determined with the aid of the reporter gene test in stable transfixed human HeLa cells. To determine the transactivation induced by the GR, the MMTV promoter, which is set before a luciferase gene, is used. Via the photometric determination of the luciferase activity, it was possible to determine the transactivation activities of the GR after binding the test compounds. The inhibition of the transcription of the luciferase gene, induced by tetradecanoyl-phorbol acetate (TPA) under the control of the IL-6 promoter or the collagenase promoter (transpression) by the GR after binding the test substances, was also determined by the measurement of luciferase activity in HeLa cells.
Description for GR (MMTV promoter): as §1, §2

`Cc1noc(=O)c2ccc(NC(=O)C(O)(CC3(c4cc(F)ccc4O)CCC3)C(F)(F)F)cc12` (racemic) [Example 28] registered a melting point of 138 °C. For the same compound, in series [1], the pIC50 is 6.07 and the “Inhibition of IL-8 Secretion Efficacy” value is 100%. The compound also showed a negative logarithm of the IC50 (pIC50) on human GR of 8.70.

Take `Cc1noc(=O)c2ccc(NC(=O)C(O)(CC(C)(C)c3cccc4c3OCO4)C(F)(F)F)cc12` (racemic) [Example 1, (±)-6-[4-(Benzo[1,3]dioxol-4-yl)-2-hydroxy-4-methyl-2-trifluoromethyl-valeroyl-amino]-4-methyl-2,3-benzoxazin-1-one]: the pIC50 is 8.70 against GR (IL-6 promoter), 7.12 in series [1] and 8.82 at human GR. Further, the Emax on GR (IL-6 promoter) worked out at 84%. Also, the “Inhibition of IL-8 Secretion Efficacy” value in series [1] is reported as 51%.

Consider `Cc1noc(=O)c2ccc(NC(=O)C(O)(CC(C)(C)c3cccc4c3OCO4)C(F)(F)F)cc12` (single isomer, unassigned; (+)) [Example 2, (+)-6-[4-(Benzo[1,3]dioxol-4-yl)-2-hydroxy-4-methyl-2-trifluoromethyl-valeroyl-amino]-4-methyl-2,3-benzoxazin-1-one], for which, in series [2], the “Transrepression (TR)(Collagenase Promoter) Efficacy” value is 92% and the negative-log IC50 (pIC50) is 8.43. Besides, in series [3], the “Edema Inhibition with 3 mg/kg” value is given as 55% and the “Edema Inhibition with 30 mg/kg” value came to 86%. Moreover, in series [4], the “Induction Factor for TAT with 3 mg/kg” value is reported as 1.4 and the “Induction Factor for TAT with 30 mg/kg” value is 2.4. Besides, at GR (IL-6 promoter), the negative-log IC50 (pIC50) is 9.04 and the Emax was found to be 66%. In series [1], the pIC50 is 7.54 and the “Inhibition of IL-8 Secretion Efficacy” value stood at 57%. For the same compound, on GR (MMTV promoter), the pEC50 is 7.96, the “Transactivating (TA)(MMTV-Promoter) Efficacy” value worked out at 71% and the “TA:TR EC50:IC50” value worked out at 11.9. The same compound had a pIC50 at human GR of over 9.52.

With `Cc1noc(=O)c2ccc(NC(=O)C(O)(CC3(c4cccc5c4OCC5)CC3)C(F)(F)F)cc12` (racemic) [Example 12], in series [1], the negative-log IC50 (pIC50) is 7.38 and the “Inhibition of IL-8 Secretion Efficacy” value is listed as 52%. Also, the negative logarithm of the IC50 (pIC50) on human GR was 9.07.

In turn, `Cc1noc(=O)c2ccc(NC(=O)C(O)(CC3(c4cccc5c4OCC5)CC3)C(F)(F)F)cc12` (single isomer, unassigned) [Example 13] yielded a melting point of 249 to 255 °C. Moreover, in series [1], the negative logarithm of the IC50 (pIC50) is 7.43 and the “Inhibition of IL-8 Secretion Efficacy” value stood at 68%. This compound showed a pIC50 on human GR of over 9.52.

On to `Cc1noc(=O)c2ccc(NC(=O)C(O)(CC3(c4cc(F)ccc4O)CCC3)C(F)(F)F)cc12` (single isomer, unassigned) [Example 29], for which, in series [2], the “Transrepression (TR)(Collagenase Promoter) Efficacy” value is reported as 105% and the negative logarithm of the IC50 (pIC50) was 8.47. For the same compound, in series [3], the “Edema Inhibition with 3 mg/kg” value was found to be 34% and the “Edema Inhibition with 30 mg/kg” value was found to be 66%. Moreover, in series [4], the “Induction Factor for TAT with 3 mg/kg” value was determined as 1.0 and the “Induction Factor for TAT with 30 mg/kg” value was 2.0. Besides, at GR (IL-6 promoter), the negative-log IC50 (pIC50) was 8.82 and the Emax was determined as 79%. In series [1], the negative logarithm of the IC50 (pIC50) is 7.51 and the “Inhibition of IL-8 Secretion Efficacy” value amounted to 86%. Also, at GR (MMTV promoter), the pEC50 was 7.89, the “Transactivating (TA)(MMTV-Promoter) Efficacy” value worked out at 59% and the “TA:TR EC50:IC50” value is 8.7. Moreover, the pIC50 on human GR is 9.46.

For the compound `Cc1noc(=O)c2ccc(NC(=O)C(O)(CC(C)(C)c3cc(F)cc4c3OCO4)C(F)(F)F)cc12` (racemic) [Example 18], the melting point lay in the range of 215 to 217 °C. At GR (IL-6 promoter), the pIC50 was 8.24 and the Emax was determined as 63%.

For `COc1c(F)cccc1C1(CC(O)(C(=O)Nc2ccc3c(=O)onc(C)c3c2)C(F)(F)F)CCC1` (single isomer, unassigned) [Example 32], on GR (IL-6 promoter), the negative logarithm of the IC50 (pIC50) is 8.66 and the Emax was found to be 76%. For the same compound, at human GR, the pIC50 is 8.52.
